Molecular target: hGPR88 receptor (Homo sapiens, UniProt Q9GZN0)
Assay: hGPR88-HEK cAMP accumulation assay
Details: GRP88 agonist activity (EC50), HEK-293 cells expressing human recombinant GPR88, forskolin 200 nM, High/Medium/Low bands
Method: Biological Assay 1: hGPR88-HEK cAMP Accumulation Assay
Cryopreserved vials of HEK-293 cells expressing human recombinant GPR88 receptor are re-suspended in KRH assay buffer and 5 μl of cell solution is suspended in test wells at a seeding density of 2500±500 cells per well using the multidrop to provide a final reaction volume of 10 μl containing 0.5% DMSO. Assay plate is incubated for 30 min at room temperature and the reaction is terminated by addition of 5 μl of each of the cAMP detection reagents of the cAMP Gi kit (Cisbio Bioassays, 62AM9PEJ), diluted in cell lysis buffer, to each well using the multidrop in the following order: first the cAMP-d2 conjugate, then the anti-cAMP cryptate conjugate. […] Raw counts were converted to cAMP concentrations via a standard curve before EC50 and Emax determination. Data is expressed as % decrease in forskolin stimulated cAMP compared to cells treated with vehicle alone in the same buffer and on the same plate.

Sequence of hGPR88 receptor (Q9GZN0 whole entry): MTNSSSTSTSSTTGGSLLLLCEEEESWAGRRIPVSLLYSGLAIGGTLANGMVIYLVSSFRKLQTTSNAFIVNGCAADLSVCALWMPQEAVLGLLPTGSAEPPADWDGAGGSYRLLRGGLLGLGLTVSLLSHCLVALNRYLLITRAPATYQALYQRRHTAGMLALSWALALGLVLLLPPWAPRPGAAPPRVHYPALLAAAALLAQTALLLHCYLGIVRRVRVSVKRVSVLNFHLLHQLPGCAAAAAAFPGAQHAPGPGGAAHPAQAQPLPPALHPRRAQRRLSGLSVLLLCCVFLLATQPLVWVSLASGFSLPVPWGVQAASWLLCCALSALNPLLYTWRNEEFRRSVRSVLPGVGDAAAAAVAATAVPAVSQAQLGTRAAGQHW

| EC50 | Structure (SMILES) |
| --- | --- |
| 1000 to 5000 nM | CC(C)(Oc1ccc(F)cc1)C(=O)Nc1ccc(-c2ccc(C(=O)N3CCOCC3)cc2)cc1 [Example 27, 2-(4-fluorophenoxy)-2-methyl-N-(4′-(morpholine-4-carbonyl)-[1,1′-biphenyl]-4-yl)propenamide] |
| 1000 to 5000 nM | COCc1ccc(-c2ccc(N(CC(C)(C)O)C(=O)C(C)(C)Oc3ccc(F)cc3)cc2)cc1 [Example 39, 2-(4-fluorophenoxy)-N-(2-hydroxy-2-methylpropyl)-N-(4′-(methoxymethyl)-[1,1′-biphenyl]-4-yl)-2-methylpropanamide] |
| 1000 to 5000 nM | COCc1ccc(-c2ccc(NC(=O)C(C)(C)Oc3ccc(F)cc3)nc2)cc1 [Example 40, 2-(4-fluorophenoxy)-N-(5-(4-(methoxymethyl)phenyl)pyridin-2-yl)-2-methylpropanamide] |
| > 5000 nM | CC(C)Cc1ccc(-c2ccc(NC(=O)C(C)(C)Oc3ccc(F)cc3)cc2)cc1 [Example 42, 2-(4-fluorophenoxy)-N-(4′-isobutyl-[1,1′-biphenyl]-4-yl)-2-methylpropanamide] |
| 1000 to 5000 nM | COCc1ccc(-c2ccc(NC(=O)C(C)(C)Cc3ccccc3)cc2)cc1 [Example 56, N-(4′-(methoxymethyl)-[1,1′-biphenyl]-4-yl)-2,2-dimethyl-3-phenylpropanamide] |
| < 1000 nM | COCc1ccc(-c2ccc(NC(=O)C(C)(C)Oc3cccc(C)c3)cc2)cc1 [Example 58, N-(4′-(methoxymethyl)-[1,1′-biphenyl]-4-yl)-2-methyl-2-(m-tolyloxy)propenamide] |
| < 1000 nM | COCc1ccc(-c2ccc(NC(=O)C(C)(C)Oc3ccc(Br)cc3)cc2)cc1 [Example 59, 2-(4-bromophenoxy)-N-(4′-(methoxymethyl)-[1,1′-biphenyl]-4-yl)-2-methylpropanamide] |
| < 1000 nM | COCc1ccc(-c2ccc(NC(=O)C(C)(C)Oc3ccc(C(C)C)cc3)cc2)cc1 [Example 60, 2-(4-isopropylphenoxy)-N-(4′-(methoxymethyl)-[1,1′-biphenyl]-4-yl)-2-methylpropanamide] |
| < 1000 nM | COCc1ccc(-c2ccc(NC(=O)C(C)(C)Oc3cccc(F)c3)cc2)cc1 [Example 62, 2-(3-fluorophenoxy)-N-(4′-(methoxymethyl)-[1,1′-biphenyl]-4-yl)-2-methylpropanamide] |
| < 1000 nM | COCc1ccc(-c2ccc(NC(=O)C(C)(C)Oc3ccc(F)cc3F)cc2)cc1 [Example 63, 2-(2,4-difluorophenoxy)-N-(4′-(methoxymethyl)-[1,1′-biphenyl]-4-yl)-2-methylpropanamide] |
| < 1000 nM | COCc1ccc(-c2ccc(NC(=O)C(C)(C)Oc3ccccc3Cl)cc2)cc1 [Example 67, 2-(2-chlorophenoxy)-N-(4′-(methoxymethyl)-[1,1′-biphenyl]-4-yl)-2-methylpropanamide] |
| < 1000 nM | CC(C)(Oc1ccc(F)cc1)C(=O)Nc1ccc(-c2ccc(CN3CCOCC3)cc2)cn1 [Example 81, 2-(4-fluorophenoxy)-2-methyl-N-(5-(4-(morpholinomethyl)phenyl)pyridin-2-yl)propanamide] |
| < 1000 nM | CCOCc1ccc(-c2ccc(NC(=O)C(C)(C)Oc3ccc(F)cc3)cc2)cc1 [Example 86, N-(4′-(ethoxymethyl)-[1,1′-biphenyl]-4-yl)-2-(4-fluorophenoxy)-2-methylpropanamide] |
| > 5000 nM | COCc1ccc(-c2ccc(NC(=O)C(C)(C)Oc3ccc(F)cc3)cc2)cc1F [Example 93, N-(3′-fluoro-4′-(methoxymethyl)-[1,1′-biphenyl]-4-yl)-2-(4-fluorophenoxy)-2-methylpropanamide] |
| 1000 to 5000 nM | COc1ccc(OC(C)(C)C(=O)Nc2ccc(-c3cnc(N(C)C)nc3)cc2)cc1 [Example 95, N-(4-(2-(dimethylamino)pyrimidin-5-yl)phenyl)-2-(4-methoxyphenoxy)-2-methylpropanamide] |

More lines, now with the values behind:

| Structure (SMILES) | EC50 |
| --- | --- |
| CCCCN(C(=O)C(C)(C)Oc1ccc(F)cc1)c1ccc(-c2ccc(COC)cc2)cc1 [Example 28, N-butyl-2-(4-fluorophenoxy)-N-(4′-(methoxymethyl)-[1,1′-biphenyl]-4-yl)-2-methylpropanamide] | < 1000 nM |
| COCc1ccc(-c2ccc(N(CC3CC3)C(=O)C(C)(C)Oc3ccc(F)cc3)cc2)cc1 [Example 29, N-(cyclopropylmethyl)-2-(4-fluorophenoxy)-N-(4′-(methoxymethyl)-[1,1′-biphenyl]-4-yl)-2-methylpropanamide] | 1000 to 5000 nM |
| CCOc1ncc(-c2ccc(NC(=O)C(C)(C)Oc3ccc(F)cc3)cc2)cn1 [Example 30, N-(4-(2-ethoxypyrimidin-5-yl)phenyl)-2-(4-fluorophenoxy)-2-methylpropanamide] | 1000 to 5000 nM |
| COCc1ccc(-c2ccc(N(CCO)C(=O)C(C)(C)Oc3ccc(F)cc3)cc2)cc1 [Example 33, 2-(4-fluorophenoxy)-N-(2-hydroxyethyl)-N-(4′-(methoxymethyl)-[1,1′-biphenyl]-4-yl)-2-methylpropanamide] | 1000 to 5000 nM |
| CC(C)(Oc1ccc(F)cc1)C(=O)Nc1ccc(-c2cnc(C(F)(F)F)nc2)cc1 [Example 38, 2-(4-fluorophenoxy)-2-methyl-/-(4-(2-(trifluoromethyl)pyrimidin-5-yl)phenyl)propenamide] | > 5000 nM |
| CC(C)(Oc1ccc(F)cc1)C(=O)Nc1ccc(-c2ccc(OC3CC3)cc2)cc1 [Example 41, N-(4′-cyclopropoxy-[1,1′-biphenyl]-4-yl)-2-(4-fluorophenoxy)-2-methylpropanamide] | > 5000 nM |
| CC(C)Oc1ccc(-c2ccc(NC(=O)C(C)(C)Oc3ccc(F)cc3)cc2)cc1 [Example 46, 2-(4-fluorophenoxy)-N-(4′-isopropoxy-[1,1′-biphenyl]-4-yl)-2-methylpropanamide] | < 1000 nM |
| CC(c1ccc(-c2ccc(NC(=O)C(C)(C)Oc3ccc(F)cc3)cc2)cc1)N1CCOCC1 (stereo not shown) [Example 47, 2-(4-fluorophenoxy)-2-methyl-N-(4′-(1-morpholinoethyl)-[1,1′-biphenyl]-4-yl)propanamide] | 1000 to 5000 nM |
| CCOc1ccc(-c2ccc(NC(=O)C(C)(C)Oc3ccc(F)cc3)cc2)cc1 [Example 51, N-(4′-ethoxy-[1,1′-biphenyl]-4-yl)-2-(4-fluorophenoxy)-2-methylpropanamide] | > 5000 nM |
| CC(C)(Oc1ccc(F)cc1)C(=O)Nc1ccc(-c2ccc(S(C)(=O)=O)cc2)cc1 [Example 52, 2-(4-fluorophenoxy)-2-methyl-N-(4′-(methylsulfonyl)-[1,1′-biphenyl]-4-yl)propenamide] | > 5000 nM |
| COCc1ccc(-c2ccc(NC(=O)C(C)(C)Cc3ccc(F)cc3)cc2)cc1 [Example 55, 3-(4-fluorophenyl)-N-(4′-(methoxymethyl)-[1,1′-biphenyl]-4-yl)-2,2-dimethylpropanamide] | < 1000 nM |
| CCc1ccc(OC(C)(C)C(=O)Nc2ccc(-c3ccc(COC)cc3)cc2)cc1 [Example 57, 2-(4-ethylphenoxy)-N-(4′-(methoxymethyl)-[1,1′-biphenyl]-4-yl)-2-methylpropanamide] | < 1000 nM |
| COCc1ccc(-c2ccc(NC(=O)C(C)(C)Oc3ccccc3C)cc2)cc1 [Example 64, N-(4′-(methoxymethyl)-[1,1′-biphenyl]-4-yl)-2-methyl-2-(o-tolylox)propenamide] | < 1000 nM |
| COCc1ccc(-c2ccc(NC(=O)C(C)(C)Oc3cccc(Cl)c3)cc2)cc1 [Example 65, 2-(3-chlorophenoxy)-N-(4′-(methoxymethyl)-[1,1′-biphenyl]-4-yl)-2-methylpropanamide] | < 1000 nM |
| COCc1ccc(-c2ccc(NC(=O)C(C)(C)Oc3ccc(OC)cc3)cc2)cc1 [Example 66, N-(4′-(methoxymethyl)-[1,1′-biphenyl]-4-yl)-2-(4-methoxyphenoxy)-2-methylpropanamide] | < 1000 nM |
| COCc1ccc(-c2ccc(NC(=O)C(C)(C)Oc3cccnn3)cc2)cc1 [Example 69, N-(4′-(methoxymethyl)-[1,1′-biphenyl]-4-yl)-2-methyl-2-(pyridazin-3-yloxy)propenamide] | > 5000 nM |
| COCc1ccc(-c2ccc(NC(=O)C(C)(C)Oc3ccc(C(F)(F)F)cn3)cc2)cc1 [Example 71, N-(4′-(methoxymethyl)-[1,1′-biphenyl]-4-yl)-2-methyl-2-((5-(trifluoromethyl)pyridin-2-yl)oxy)propenamide] | > 5000 nM |
| CN1CCN(Cc2ccc(-c3ccc(NC(=O)C(C)(C)Oc4ccc(F)cc4)cc3)cc2)CC1 [Example 72, 2-(4-fluorophenoxy)-2-methyl-N-(4′-((4-methylpiperazin-1-yl)methyl)-[1,1′-biphenyl]-4-yl)propanamide] | 1000 to 5000 nM |
| CN(C)Cc1ccc(-c2ccc(NC(=O)C(C)(C)Oc3ccc(F)cc3)nc2)cc1 [Example 80, N-(5-(4-((dimethylamino)methyl)phenyl)pyridin-2-yl)-2-(4-fluorophenoxy)-2-methylpropanamide] | 1000 to 5000 nM |
| CCCc1ccc(-c2ccc(NC(=O)C(C)(C)Oc3ccc(F)cc3)cc2)cc1 [Example 84, 2-(4-fluorophenoxy)-2-methyl-N-(4′-propyl-[1,1′-biphenyl]-4-yl)propanamide] | > 5000 nM |
| CC(C)(Oc1ccc(F)cc1)C(=O)Nc1ccc(-c2ccc3c(c2)OCO3)cc1 [Example 88, N-(4-(benzo[d][1,3]dioxol-5-yl)phenyl)-2-(4-fluorophenoxy)-2-methylpropanamide] | 1000 to 5000 nM |
| CC(C)(C)OCc1ccc(-c2ccc(NC(=O)C(C)(C)Oc3ccc(F)cc3)cc2)cc1 [Example 89, N-(4′-(tert-butoxymethyl)-[1,1′-biphenyl]-4-yl)-2-(4-fluorophenoxy)-2-methylpropanamide] | < 1000 nM |
| CCCc1ccc(-c2ccc(NC(=O)C(C)(C)Oc3ccc(F)cc3)cc2)cn1 [Example 91, 2-(4-fluorophenoxy)-2-methyl-N-(4-(6-propylpyridin-3-yl)phenyl)propanamide] | 1000 to 5000 nM |
| CCOc1ccc(-c2ccc(NC(=O)C(C)(C)Oc3ccc(OC)cc3)cc2)cn1 [Example 94, N-(4-(6-ethoxypyridin-3-yl)phenyl)-2-(4-methoxyphenoxy)-2-methylpropanamide] | 1000 to 5000 nM |
| COCc1ccc(-c2ccc(NC(=O)C(C)(C)Oc3ccc(Cl)cc3Cl)cc2)cc1 [Example 96, 2-(2,4-dichlorophenoxy)-N-(4′-(methoxymethyl)-[1,1′-biphenyl]-4-yl)-2-methylpropanamide] | > 5000 nM |
